Like-named read-outs stand apart in the source and are kept apart here.
What was measured:
OR2T11 = target: T1, OR2T11 (Homo sapiens, UniProt Q8NH01); conditions: cited from earlier work
T1 sequence (Q8NH01 1-316): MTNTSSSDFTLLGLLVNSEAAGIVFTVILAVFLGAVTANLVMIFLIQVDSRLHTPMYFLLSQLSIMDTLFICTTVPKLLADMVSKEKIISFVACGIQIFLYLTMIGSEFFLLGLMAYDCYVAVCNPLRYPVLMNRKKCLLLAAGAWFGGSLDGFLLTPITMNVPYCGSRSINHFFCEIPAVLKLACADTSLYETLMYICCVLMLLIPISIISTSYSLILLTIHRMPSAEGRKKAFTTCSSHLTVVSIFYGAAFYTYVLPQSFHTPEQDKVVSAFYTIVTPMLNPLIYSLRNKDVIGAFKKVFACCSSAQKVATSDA

consensus OR2T5 = target: T2, consensus OR2T5 (Homo sapiens, UniProt Q6IEZ7, A76M/C55S/F147L/I190K/I217V/K41M/L14S/L223S/L224F/L249M/L87M/M19V/M302T/M75V/R23S/R24Q/R6W/S169T/S32C/S61T/T121A/T189M/V229I/V48I/V96I/W176R); assay: Luciferase assay, sulfur compounds; format: cell-based
T2 construct: expressed in transfected cells; host or cells: HEK293
T2 sequence (Q6IEZ7 with tags, fused parts or gaps R6W/L14S/M19V/R23S/R24Q/S32C/K41M/V48I/C55S/S61T/M75V/A76M/L87M/V96I/T121A/F147L/S169T/W176R/T189M/I190K/I217V/L223S/L224F/V229I/L249M/M302T): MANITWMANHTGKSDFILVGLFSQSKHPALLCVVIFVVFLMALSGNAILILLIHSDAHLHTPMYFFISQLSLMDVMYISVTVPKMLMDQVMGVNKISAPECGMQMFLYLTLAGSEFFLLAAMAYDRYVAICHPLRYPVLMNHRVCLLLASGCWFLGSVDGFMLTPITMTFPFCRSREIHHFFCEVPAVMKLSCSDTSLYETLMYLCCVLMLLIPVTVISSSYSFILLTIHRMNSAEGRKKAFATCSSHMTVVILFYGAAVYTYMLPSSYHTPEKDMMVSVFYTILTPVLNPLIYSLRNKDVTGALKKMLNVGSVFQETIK

consensus OR2T27 = target: T3, consensus OR2T27 (Homo sapiens, UniProt Q8NH04, A21T/G216A/G235R/H131R/I13V/I140V/K45M/L36V/R69M/S88G/T37I/V304A/V305L/V43T/V8M/W142L); assay: Luciferase assay, sulfur compounds; format: cell-based; conditions: in the presence of a copper ion
T3 construct: expressed in transfected cells; host or cells: HEK293

consensus OR2T11 = target: T4, consensus OR2T11 (Homo sapiens, UniProt Q8NH01); assay: Luciferase assay, sulfur compounds; format: cell-based
T4 construct: fused on or other part: N-terminal Flag-Rho tag from the pME18S vector

consensus OR2L13 = target: T5, consensus OR2L13 (Homo sapiens, UniProt Q8N349, C217Y/C28L/D174N/F161Y/F208L/F25L/F309S/G145I/H228R/H49R/H6Q/I211L/I240C/I248T/I24L/L123V/L17F/L185P/R301T/S128P/S215A/T115A/T149I/T189M/Y130H/Y82F); assay: Luciferase assay, sulfur compounds; format: cell-based; conditions: in the presence of a copper ion
T5 construct: Flag (N); Rho tag (N); expressed in transfected cells; host or cells: HEK293
T5 sequence (Q8N349 1-312 H6Q/L17F/I24L/F25L/C28L/H49R/Y82F/T115A/L123V/S128P/Y130H/G145I/T149I/F161Y/D174N/L185P/T189M/F208L/I211L/S215A/C217Y/H228R/I240C/I248T/R301T/F309S): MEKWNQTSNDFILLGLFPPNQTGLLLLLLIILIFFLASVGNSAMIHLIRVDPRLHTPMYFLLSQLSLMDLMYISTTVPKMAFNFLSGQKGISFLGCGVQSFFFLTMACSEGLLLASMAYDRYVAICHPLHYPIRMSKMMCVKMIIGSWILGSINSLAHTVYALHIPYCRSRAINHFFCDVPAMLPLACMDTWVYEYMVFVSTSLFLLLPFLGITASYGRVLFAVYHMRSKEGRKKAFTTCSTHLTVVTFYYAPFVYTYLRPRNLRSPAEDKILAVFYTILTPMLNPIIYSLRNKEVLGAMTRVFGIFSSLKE

consensus OR4C15 = target: T6, consensus OR4C15 (Homo sapiens, UniProt Q8NGM1, A218G/A270V/E23K/G63A/I200A/I247V/I275T/L152F/L222F/L266F/M197L/N174D/N209I/N278T/Q295N/R137W/R299K/T258A/T88R/V55G/V87E/W233R); assay: Luciferase assay, sulfur compounds; format: cell-based
T6 construct: Flag (N); Rho tag (N); expressed in transfected cells; host or cells: HEK293

[1] = Block E et al., Nat. Prod. Rep. 2017
[2] = in the presence of a copper ion
[3] = read-out: EC50(μM) with 30 μM CuCl2; consensus OR2T11; 30 μM CuCl2

T6 sequence (Q8NGM1 1-311 with the stated changes limits assumed): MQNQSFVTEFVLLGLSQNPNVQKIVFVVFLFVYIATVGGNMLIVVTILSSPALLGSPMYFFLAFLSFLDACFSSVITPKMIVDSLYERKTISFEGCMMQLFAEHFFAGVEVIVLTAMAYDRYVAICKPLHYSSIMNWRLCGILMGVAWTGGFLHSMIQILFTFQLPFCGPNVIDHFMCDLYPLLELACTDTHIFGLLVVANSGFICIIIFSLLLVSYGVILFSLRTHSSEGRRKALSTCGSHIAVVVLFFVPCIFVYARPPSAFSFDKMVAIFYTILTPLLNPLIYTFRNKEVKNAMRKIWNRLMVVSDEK
T3 sequence (Q8NH04 with tags, fused parts or gaps with the stated changes): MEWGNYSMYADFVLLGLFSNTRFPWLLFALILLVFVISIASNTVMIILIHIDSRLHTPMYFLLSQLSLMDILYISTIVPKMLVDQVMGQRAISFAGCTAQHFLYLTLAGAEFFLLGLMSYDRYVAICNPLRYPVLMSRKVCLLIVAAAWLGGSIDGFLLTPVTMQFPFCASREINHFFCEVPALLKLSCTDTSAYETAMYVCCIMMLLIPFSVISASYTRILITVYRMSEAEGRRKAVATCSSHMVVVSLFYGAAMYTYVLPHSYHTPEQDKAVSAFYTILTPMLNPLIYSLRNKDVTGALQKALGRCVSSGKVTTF

| Compound | response of OR2T11 (OR2T11; [1]) | response of consensus OR2T5 (consensus OR2T5; [2]) | response of consensus OR2T27 (consensus OR2T27) | dose dependence of the response of consensus OR2T11 (consensus OR2T11; [2]) | response of consensus OR2T11 (consensus OR2T11; [2]) | EC50 (consensus OR2T11; [3]) | response of consensus OR2L13 (consensus OR2L13) | EC50 (consensus OR4C15) | dose dependence of the response of consensus OR4C15 (consensus OR4C15; [2]) | response of consensus OR4C15 (consensus OR4C15; [2]) | EC50 (consensus OR2T11; consensus OR2T11; 30 μM CuCl2; read-out: EC50(μM) with 30 μM CuCl2) | response of OR2T11 (OR2T11; in the presence of a metal ion (JP-B-6122181)) | EC50 (consensus OR2T5; consensus OR2T5, 30 μM CuCl2) | dose dependence of the response of consensus OR2T5 (consensus OR2T5; [2]) |
| --- | --- | --- | --- | --- | --- | --- | --- | --- | --- | --- | --- | --- | --- | --- |
| CSSC [dimethyl disulfide] | responds | responded | responded | dose-dependent response | responded | 246 µM | responded | 615 µM | dose-dependent response | responded |  |  |  |  |
| CSSSC [dimethyl trisulfide] |  |  |  | dose-dependent response | responded |  | responded |  |  | responded | 26 µM |  |  |  |
| CS [methyl mercaptan] | responds | responded | responded | dose-dependent response | responded | 5 µM | responded |  |  | responded |  | respond | 217 µM | dose-dependent response |

Reference: patent US20240279302A1, “OLFACTORY RECEPTOR EXPRESSING METHOD AND RESPONSE MEASUREMENT METHOD” (Kao Corporation, priority 2021, published 2024)
